Assay results taken from patent US20260232749A1, “Plant-Based Compositions And Methods For Modulation of Inflammatory Response Post Viral Infection” (VDF Futureceuticals, Inc., priority 2023, published 2026).
“Also recorded” adds a separate entry of the source.

Tests used:
[1] = target: iNOS (Homo sapiens, UniProt P35228); assay: eCMA-iNOS: iNOS-dependent ROS generation in capillary blood (ESR) after single oral dose; type: in vivo; details: over three hours after single oral dose (50 mg blend or 1,000 mg vitamin C); FIG. 2
[2] = target: T1, NOX2 (Homo sapiens, UniProt P04839); assay: eCMA-PHAGO-NOX2: NOX2-dependent ROS generation in capillary blood (ESR) after single oral dose; type: in vivo; details: single oral dose (50 mg blend or 1,000 mg vitamin C); subjects 18-24 days after moderate COVID-19; 30-180 min after administration
T1 sequence (P04839 2-570 limits assumed): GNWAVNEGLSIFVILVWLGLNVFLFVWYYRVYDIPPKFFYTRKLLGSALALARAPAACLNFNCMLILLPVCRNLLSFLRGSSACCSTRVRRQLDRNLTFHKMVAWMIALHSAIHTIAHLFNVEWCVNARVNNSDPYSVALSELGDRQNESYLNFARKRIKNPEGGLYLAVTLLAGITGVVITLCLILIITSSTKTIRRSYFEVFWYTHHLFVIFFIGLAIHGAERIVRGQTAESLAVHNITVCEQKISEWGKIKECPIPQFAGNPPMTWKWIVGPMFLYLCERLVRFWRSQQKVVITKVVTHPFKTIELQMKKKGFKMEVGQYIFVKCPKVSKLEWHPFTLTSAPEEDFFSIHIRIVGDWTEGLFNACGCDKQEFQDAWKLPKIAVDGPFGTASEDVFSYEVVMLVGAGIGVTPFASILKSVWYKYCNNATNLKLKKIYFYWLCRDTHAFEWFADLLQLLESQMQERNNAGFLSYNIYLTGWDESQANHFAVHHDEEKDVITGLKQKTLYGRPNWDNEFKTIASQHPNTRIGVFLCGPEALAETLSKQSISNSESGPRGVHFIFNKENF
T1 sequence (P13498 2-195 partner limits assumed): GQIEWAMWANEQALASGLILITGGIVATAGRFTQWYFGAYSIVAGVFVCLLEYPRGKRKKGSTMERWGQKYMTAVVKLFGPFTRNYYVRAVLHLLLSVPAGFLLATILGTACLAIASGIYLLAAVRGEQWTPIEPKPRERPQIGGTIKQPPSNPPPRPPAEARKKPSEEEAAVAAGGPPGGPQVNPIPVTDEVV

[3] = test system: TNF-α induced H2O2 formation; assay: inflammatory resistance assay: ex vivo TNF-α induced extracellular H2O2 generation by blood cells; type: in vivo, human; details: single oral dose 50 mg blend or 1,000 mg vitamin C

## O=C1O[C@H]([C@@H](O)CO)C(O)=C1O [vitamin C]
[1]
  change in iNOS dependent cellular metabolic activity, in words: no notable effect
[2]
  inhibition of NOX2-dependent ROS generation: 45%
[3]; TNF-α 40 ng/ml (comparable to acute viral infection), FIG. 5A
  suppression of extracellular H2O2 induced by TNF-α, in words: similarly suppress
[3]; TNFα 200 ng/ml ("Cytokine Storm"), FIG. 5B
  reduction of high dose TNFα-induced H2O2 formation, in words: equal potential to reduce; also recorded: similar
